Values of other authors, collected in patent US20140294923A1, “ACTH FOR TREATMENT OF MIGRAINE HEADACHE” (priority 2013, published 2014).

Tested on: CGRP release
Conditions: experimental models; Ulrich-Lai 2001

For “ACTH (SYSMEHFRWGKPVGKKRRPVKVYPDGAEDQLAEAFPLEF)”, the “release of CGRP” value is given as “inhibit the release of CGRP”.
